This is an account of results in patent US10100048B2, “Heterocyclic compounds and their use as glycogen synthase kinase-3 inhibitors” (AbbVie Deutschland GmbH & Co. KG, priority 2010, dated 2018).

Structures can show the parent of a compound that is named as a salt. Where only a bound is given, the exact number is not on record here.

The target of this assay is human Glycogen Synthase Kinase-3 beta (hGSK-3β) (Homo sapiens (Human), UniProt P49841). In words: Biochemical hGSK-3Beta Assay (33P-ATP phosphorylation of biotinylated peptide substrate, Flash-plate). The note with it: 0.0125 U hGSK-3β, 10 μM ATP, 1 μM substrate, 30 minutes at room temperature; read-out: GSK-3β IC50. How it is done: Methods—Biochemical hGSK-3Beta Assay
Chain of human Glycogen Synthase Kinase-3 beta (hGSK-3β) (P49841 whole entry): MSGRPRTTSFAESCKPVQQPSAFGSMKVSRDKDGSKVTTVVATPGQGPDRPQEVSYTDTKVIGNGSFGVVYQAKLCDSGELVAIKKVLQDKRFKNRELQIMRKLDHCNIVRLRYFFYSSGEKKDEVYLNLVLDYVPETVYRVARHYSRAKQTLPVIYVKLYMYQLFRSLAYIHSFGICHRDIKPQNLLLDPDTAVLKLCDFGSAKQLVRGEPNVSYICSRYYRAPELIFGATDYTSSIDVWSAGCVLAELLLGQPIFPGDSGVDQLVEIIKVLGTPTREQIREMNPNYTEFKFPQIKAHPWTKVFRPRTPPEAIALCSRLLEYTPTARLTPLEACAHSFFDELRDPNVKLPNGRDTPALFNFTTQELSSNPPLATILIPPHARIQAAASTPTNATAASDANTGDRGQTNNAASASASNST
Compounds were tested for their ability to inhibit human Glycogen Synthase Kinase-3 beta (hGSK-3β) to phosphorylate biotin-[…](pS)EDEEE. Compounds were incubated with 0.5 μCi 33P-ATP, 10 μM ATP, 0.0125 U hGSK-3β (Upstate cell signaling solutions) and 1 μM substrate (biotin-[…](pS)EDEEE) in 50 mM HEPES, 10 mM MgCl2, […], 1 mM DTT, 0.0075% Triton, 2% DMSO (total volume 50 μL) for 30 minutes at room temperature. The incubation was stopped by addition of an equal volume of 100 mM EDTA, 4M NaCl. 80 μL of this mixture was added to streptavidin-coated Flash-plates (PerkinElmer). Following a wash step, 33P incorporation was quantified on a MicroBeta microplate liquid scintillation counter (Perkin Elmer). IC50s were determined by fitting a sigmoidal dose-response curve to the counts obtained at the different concentrations in GraphPad Prism.

The IC50 is the point on the concentration scale where inhibition reaches its midpoint. Take `N#Cc1ccc2c(c1)C(c1ccc3c(n1)CNC3)C(=O)N2` (centres unmarked) [Example 5, 3-(6,7-Dihydro-5H-pyrrolo[3,4-b]pyridin-2-yl)-2-oxoindoline-5-carbonitrile hydrochloride]: the IC50 is under 100 nM.

Turning to `COC1CCCc2nc(C3C(=O)Nc4ccc(C#N)cc43)ccc21` (centres unmarked) [Example 6, 3-(5-Methoxy-5,6,7,8-tetrahydroquinolin-2-yl)-2-oxoindoline-5-carbonitrile], the IC50 is under 100 nM.

`CC(C)(C)OC(=O)N1CCc2nc(C3C(=O)Nc4ccc(C#N)cc43)ccc2C1` (centres unmarked) [Example 2.2, tert-Butyl 2-(5-cyano-2-oxoindolin-3-yl)-7,8-dihydro-1,6-naphthyridine-6(5H)-carboxylate]: the IC50 is under 100 nM.

For `N#Cc1ccc2c(c1)C(c1ccc3c(n1)CCCC3O)C(=O)N2` (centres unmarked) [Example 1, 3-(5-Hydroxy-5,6,7,8-tetrahydroquinolin-2-yl)-2-oxoindoline-5-carbonitrile], the IC50 is under 100 nM.

For the compound `N#Cc1ccc2c(c1)C(c1ccc3c(n1)CCNC3)C(=O)N2` (centres unmarked) [Example 2, 2-Oxo-3-(5,6,7,8-tetrahydro-1,6-naphthyridin-2-yl)indoline-5-carbonitrile], the IC50 is under 100 nM.
